Test results reported in US20050004211A1, “Pharmaceutical compositions comprising aryl-substituted acyclic enediyne compounds” (KAOHSIUNG MEDICAL UNIVERSITY, priority 2003, published 2005).
Marks after values point to notes of the source that are not given here.

Key:
Colon Cancer cell lines = experiment: NCI full panel screen, panel average; conditions: Homo sapiens, read-out: cytotoxicity, average of all Colon Cancer cell lines
K-562 = conditions: Table 4; for GI50: read-out: GI50 K-562; for CC50: read-out: LC50 K-562
IGROV1 = conditions: Table 4; for GI50: read-out: GI50 IGROV1; for CC50: read-out: LC50 IGROV1
SF-295 = conditions: Table 4; for GI50: read-out: GI50 SF-295; for CC50: read-out: LC50 SF-295
[1] = system: Ovarian Cancer cell lines; experiment: NCI full panel screen, panel average; conditions: Homo sapiens, read-out: cytotoxicity, average of all Ovarian Cancer cell lines
Renal Cancer cell lines = experiment: NCI full panel screen, panel average; conditions: Homo sapiens, read-out: cytotoxicity, average of all Renal Cancer cell lines
[2] = system: Prostate Cancer cell lines; experiment: NCI full panel screen, panel average; conditions: Homo sapiens, read-out: cytotoxicity, average of all Prostate Cancer cell lines
SW-620 = conditions: Table 4; for GI50: read-out: GI50 SW-620; for CC50: read-out: LC50 SW-620
CNS Cancer cell lines = experiment: NCI full panel screen, panel average; conditions: Homo sapiens, read-out: cytotoxicity, average of all CNS Cancer cell lines
CNS cancer cell SF-268 = experiment: Preliminary cytotoxicity test; type: cell-based, human
[3] = system: Non-small cell Lung cancer cell NCI-H460; experiment: Preliminary cytotoxicity test; type: cell-based, human
SK-MEL-5 = conditions: Table 4; for GI50: read-out: GI50 SK-MEL-5; for CC50: read-out: LC50 SK-MEL-5
SN12C = conditions: read-out: GI50 SN12C; Table 4
DU-145 = experiment: NCI full panel screen; conditions: Table 4; for GI50: read-out: GI50 DU-145; for CC50: read-out: LC50 DU-145
NCI/ADR-RES = conditions: Table 4; for GI50: read-out: GI50 NCI/ADR-RES; for CC50: read-out: LC50 NCI/ADR-RES
KM12 = conditions: Table 4; for CC50: read-out: LC50 KM12
Breast cancer cell MCF-7 = experiment: Preliminary cytotoxicity test; type: cell-based, human
SR = experiment: NCI full panel screen; conditions: Table 4; for GI50: read-out: GI50 SR; for CC50: read-out: LC50 SR
CAKI-1 = conditions: Table 4; for GI50: read-out: GI50 CAKI-1; for CC50: read-out: LC50 CAKI-1
MDA-MB-435 = conditions: read-out: GI50 MDA-MB-435; Table 4
Leukemia cell lines = experiment: NCI full panel screen, panel average; conditions: Homo sapiens, read-out: cytotoxicity, average of all Leukemia cell lines
[4] = system: Non-Small Cell Lung Cancer cell lines; experiment: NCI full panel screen, panel average; conditions: Homo sapiens, read-out: cytotoxicity, average of all Non-Small Cell Lung Cancer cell lines
Melanoma cell lines = experiment: NCI full panel screen, panel average; conditions: Homo sapiens, read-out: cytotoxicity, average of all Melanoma cell lines
U251 = conditions: Table 4; for GI50: read-out: GI50 U251; for CC50: read-out: LC50 U251
PC-3 = conditions: read-out: GI50 PC-3; Table 4
NCI-H23 = conditions: read-out: GI50 NCI-H23; Table 4
OVCAR-3 = experiment: NCI full panel screen; conditions: Homo sapiens; for GI50: OVCAR-3, read-out: GI50 OVCAR-3; for CC50: OVCAR-3, read-out: LC50 OVCAR-3
Breast Cancer cell lines = experiment: NCI full panel screen, panel average; conditions: Homo sapiens, read-out: cytotoxicity, average of all Breast Cancer cell lines
NCI-H522 = conditions: Table 4; for GI50: read-out: GI50 NCI-H522; for CC50: read-out: LC50 NCI-H522
UACC-82 = conditions: read-out: GI50 UACC-82; Table 4

For `N#Cc1ccccc1C#CC=CC#Cc1cnccn1` [Compound 30, 2-(6-(2-pyrazinyl)-3-hexen-1,5-diynyl)benzonitrile], the IC50 (Colon Cancer cell lines) was 7.54 µM, the GI50 (K-562) was 4.88 µM and the CC50 (K-562) was > 100 µM. For the same compound, the GI50 (IGROV1) was 46.2 µM, the CC50 (IGROV1) was > 100 µM and the GI50 (SF-295) was 17.6 µM. The CC50 (SF-295) was > 100 µM, the IC50 [1] was 38.1 µM and the IC50 (Renal Cancer cell lines) was 27 µM. The IC50 [2] was 33.6 µM, the GI50 (SW-620) was 6.98 µM and the CC50 (SW-620) was > 100 µM. The IC50 (CNS Cancer cell lines) was 32.2 µM, the “Growth percentage, CNS cancer cell SF-268” value (CNS cancer cell SF-268) was 84% and the “Growth percentage, Non-small cell Lung cancer cell NCI-H460” value [3] was 8* %. For the same compound, the GI50 (SK-MEL-5) was 19.6 µM, the CC50 (SK-MEL-5) was > 100 µM and the GI50 (SN12C) was 22.6 µM. The GI50 (DU-145) was 36.3 µM, the CC50 (DU-145) was > 100 µM and the GI50 (NCI/ADR-RES) was 15.9 µM. The CC50 (NCI/ADR-RES) was > 100 µM, the GI50 (KM12; read-out: GI50 KM12) was 4.39 µM and the CC50 (KM12) was > 100 µM. For the same compound, the “Growth percentage, Breast cancer cell MCF-7” value (Breast cancer cell MCF-7) was 73%, the GI50 (SR) was 4.3 µM and the CC50 (SR) was > 100 µM. For the same compound, the GI50 (CAKI-1) was 21.6 µM, the CC50 (CAKI-1) was > 100 µM and the GI50 (MDA-MB-435) was 5.3 µM. For the same compound, the IC50 (Leukemia cell lines) was 5.05 µM, the IC50 [4] was 11.8 µM and the IC50 (Melanoma cell lines) was 18.7 µM. For the same compound, the GI50 (U251) was 36.1 µM, the CC50 (U251) was > 100 µM and the GI50 (PC-3) was 30.9 µM. For the same compound, the GI50 (NCI-H23) was 15.9 µM, the GI50 (OVCAR-3) was 16.6 µM and the CC50 (OVCAR-3) was > 100 µM. For the same compound, the IC50 (Breast Cancer cell lines) was 33.3 µM, the GI50 (NCI-H522) was 14.8 µM and the CC50 (NCI-H522) was > 100 µM.

For `N#Cc1ccccc1C#CC=CC#Cc1ccccc1N` [Compound 32, 2-[6-(o-anilinyl)-3-hexen-1,5-diynyl]benzonitrile], the IC50 (Colon Cancer cell lines) was 0.47 µM, the GI50 (K-562) was 0.48 µM and the CC50 (K-562) was > 100 µM. The GI50 (IGROV1) was 0.27 µM, the CC50 (IGROV1) was > 100 µM and the GI50 (SF-295) was 0.24 µM. The CC50 (SF-295) was 12.4 µM, the IC50 [1] was 1.55 µM and the IC50 (Renal Cancer cell lines) was 0.66 µM. The IC50 [2] was 3.13 µM, the GI50 (SW-620) was 0.39 µM and the CC50 (SW-620) was > 100 µM. The IC50 (CNS Cancer cell lines) was 9.44 µM, the “Growth percentage, CNS cancer cell SF-268” value (CNS cancer cell SF-268) was 27* % and the “Growth percentage, Non-small cell Lung cancer cell NCI-H460” value [3] was 8* %. It also gave a GI50 (SK-MEL-5) of 0.44 µM, a CC50 (SK-MEL-5) of 33.1 µM and a GI50 (SN12C) of 0.41 µM. The GI50 (DU-145) was 3.48 µM, the CC50 (DU-145) was > 100 µM and the GI50 (NCI/ADR-RES) was 0.37 µM. The CC50 (NCI/ADR-RES) was > 100 µM, the CC50 (KM12) was > 100 µM and the “Growth percentage, Breast cancer cell MCF-7” value (Breast cancer cell MCF-7) was 36%. For the same compound, the GI50 (UACC-82) was 0.37 µM, the GI50 (SR) was 0.25 µM and the CC50 (SR) was > 100 µM. The GI50 (CAKI-1) was 0.13 µM, the CC50 (CAKI-1) was 35.9 µM and the GI50 (MDA-MB-435) was 0.11 µM. For the same compound, the IC50 (Leukemia cell lines) was 0.43 µM, the IC50 [4] was 1.7 µM and the IC50 (Melanoma cell lines) was 0.77 µM. The GI50 (U251) was 0.43 µM, the CC50 (U251) was > 100 µM and the GI50 (PC-3) was 2.78 µM. It also gave a GI50 (NCI-H23) of 0.8 µM, a GI50 (OVCAR-3) of 0.17 µM and a CC50 (OVCAR-3) of 98.4 µM. The IC50 (Breast Cancer cell lines) was 2 µM, the GI50 (NCI-H522) was 0.3 µM and the CC50 (NCI-H522) was 8.62 µM.

`N#Cc1ccccc1C#CC=CC#Cc1ccccn1` [Compound 27, 2-(6-(2-pyridinyl)-3-hexen-1,5-diynyl)benzonitrile] was tested, and the IC50 (Colon Cancer cell lines) was 16.3 µM, the CC50 (K-562) was > 100 µM and the GI50 (IGROV1) was 17 µM. For the same compound, the CC50 (IGROV1) was 79.1 µM, the GI50 (SF-295) was 20.1 µM and the CC50 (SF-295) was > 100 µM. For the same compound, the IC50 [1] was 27.3 µM, the IC50 (Renal Cancer cell lines) was 21.7 µM and the IC50 [2] was 21.2 µM. It also gave a GI50 (SW-620) of 12.6 µM, a CC50 (SW-620) of 80.5 µM and an IC50 (CNS Cancer cell lines) of 20.9 µM. The “Growth percentage, CNS cancer cell SF-268” value (CNS cancer cell SF-268) was 83%, the “Growth percentage, Non-small cell Lung cancer cell NCI-H460” value [3] was 23* % and the GI50 (SK-MEL-5) was 2.99 µM. The CC50 (SK-MEL-5) was 41.6 µM, the GI50 (SN12C) was 20.4 µM and the CC50 (DU-145) was > 100 µM. For the same compound, the GI50 (NCI/ADR-RES) was 16.5 µM, the CC50 (NCI/ADR-RES) was 71 µM and the CC50 (KM12) was 80.4 µM. The “Growth percentage, Breast cancer cell MCF-7” value (Breast cancer cell MCF-7) was 49%, the GI50 (UACC-82) was 15.3 µM and the CC50 (SR) was > 100 µM. For the same compound, the GI50 (CAKI-1) was 21.8 µM, the CC50 (CAKI-1) was > 100 µM and the IC50 (Leukemia cell lines) was 12.8 µM. It also gave an IC50 [4] of 19.6 µM, an IC50 (Melanoma cell lines) of 14.2 µM and a CC50 (U251) of 79 µM. For the same compound, the GI50 (PC-3) was 13.7 µM, the GI50 (NCI-H23) was 12.3 µM and the GI50 (OVCAR-3) was 4.26 µM. The CC50 (OVCAR-3) was 56.9 µM, the IC50 (Breast Cancer cell lines) was 14.3 µM and the CC50 (NCI-H522) was 84.7 µM.
